These results are taken from patent US20260055088A1, “HETEROCYCLIC COMPOUND, METHOD FOR PREPARING SAME, AND PHARMACEUTICAL USE THEREOF” (Jiangsu Hengrui Pharmaceuticals Co., Ltd., priority 2022, published 2026).

A short description of data set [1]: Solubility in FassIF and FessIF solutions. The format is physicochemical. As to conditions: thermodynamic from solid, 37° C. An excerpt:
Reagents: dimethyl sulfoxide (chromatographically pure, Sigma-Aldrich, Cat. No. 472301-4X4L), ethanol (chromatographically pure, CNW, Cat. No. 4.016362.4000), acetonitrile (chromatographically pure, FISHER, Cat. No. A998-4), NaH2PO4·2H2O (analytically pure, Sinopharm Chemical Reagent Co., Ltd., Cat. No. 20040717), ammonium acetate (chromatographically pure, ALADDIN, Cat. No. 17836-250G), FaSSIF/FeSSIF/FaSSGF powder (Biorelevant, Cat. No. FFF02), FaSSIF buffer concentrate (Biorelevant, Cat. No. FASBUF), FeSSIF buffer concentrate (Biorelevant, Cat. No. FESBUF), and ultrapure water (made in-house using an ELGA CHORUS laboratory water purification system).
Instrument: Agilent 1200 DAD liquid chromatograph (Agilent, U.S.)
FaSSIF solution: 2.0825 g of FaSSIF medium solution and 48.055 g of ultrapure water were weighed into a 50-mL beaker, and 0.112 g of FaSSIF/FeSSIF/FaSSGF powder was then added to the beaker. The mixture was stirred to dissolve the powder, and the solution was then equilibrated by standing for 2 h before use (the solution should be used within 48 h). […]
3.1. […] 10 μL of the stock solution (concentration 10 mM, dissolved in DMSO) was precisely measured out and well mixed with 990 μL of an organic solvent mixture (usually DMSO:acetonitrile:ethanol=1:1:1) in a 2-mL sample flask to form a 100 μM clear sample solution. […]

The target in data set [2] is Nav1.8 ion channel stably expressed on HEK293 cells (Homo sapiens (Human), UniProt Q9Y5Y9). Briefly: Inhibitory activity against Nav1.8, manual patch clamp. The format is cell-based. The note with it: resting protocol (-80 mV to 10 mV), 1 μM TTX, read-out: IC50 for the inhibition of Nav1.8 channel activity. An excerpt: The objective of the experiment was to investigate the effects of the compounds on the Nav1.8 ion channel in ex vivo experiments. The Nav1.8 ion channel is stably expressed on HEK293 cells. After the Nav1.8 current stabilized, the effects of the compounds on the Nav1.8 ion channel were obtained by comparing the magnitudes of the Nav1.8 currents before and after the compounds were applied.
• 1) A patch clamp amplifier: patch clamp PC-505B (WARNER instruments)/MultiClamp 700A (Axon instrument) • 2) A digital-to-analog converter: Digidata 1440A (Axon CNS)/Digidata 1550A (Axon instruments) • 3) A micromanipulator: MP-225 (SUTTER instrument) • 4) An inverted microscope: TL4 (Olympus) • 5) Glass micropipette puller: PC-10 (NARISHIGE) • 6) Microelectrode glass capillaries: B12024F (Wuhan VitalSense Scientific Instruments Co., Ltd.) • 7) Dimethyl sulfoxide (DMSO) D2650 (Sigma-Aldrich) • 8) TTX AF3014 (Affix Scientific)
The compounds for preparing the intracellular and extracellular fluids were purchased from Sigma (St. Louis, MO) except for the NaOH and KOH for the acid-base titrations. The extracellular fluid (mM) was: NaCl, 137; KCl, 4; CaCl2, 1.8; MgCl2, 1; HEPES, 10; glucose, 10; pH 7.4 (NaOH titration). The intracellular fluid (mM) was: aspartic acid, 140; MgCl2, 2; EGTA, 11; HEPES, 10; pH 7.2 (CsOH titration). All test and control compound solutions contained 1 μM TTX.
The test compounds were stored at a concentration of 9 mM in dimethyl sulfoxide (DMSO). On the testing day, the compounds were further dissolved in the extracellular fluid to prepare the required concentrations.
1) After the compounds were prepared into solutions with specified concentrations, the compound solutions were sequentially added to channels in ascending order according to their concentrations, and each channel was labeled.
2) A cell was transferred to the perfusion chamber. Positive pressure was applied inside the electrode, and the electrode tip was brought into contact with the cell. The three-way valve of the suction device was switched to the state where all three ways were open, and negative pressure was then applied to the electrode, allowing a high-resistance seal to form between the electrode and the cell. The application of negative pressure was continued to rupture the cell membrane, leading to the formation of a current pathway.
3) After the cell membrane rupture current stabilized, perfusion was performed with different concentrations in sequence. If the current remained stable for at least one minute, perfusion was performed with the next concentration.
4) The perfusion chamber was cleaned. The perfusion chamber was rinsed with the compound solutions in descending order according to their concentrations, with each concentration applied for 20 s. Finally, the perfusion chamber was rinsed with the extracellular fluid for 1 min.
The cell was clamped at −80 mV and then depolarized to 10 mV using a square wave lasting for 10 ms to obtain a Nav1.8 current. This procedure was repeated once every 5 seconds. The maximum current induced by the square wave was detected. After the current stabilized, perfusion was performed with the test compounds. After the reaction stabilized, the strength of the blocking was calculated.
The data were stored on a computer system and analyzed. Data acquisition and analysis were performed using pCLAMP 10 (Molecular Devices, Union City, CA), and the results were reviewed by a manager. “Current stabilized” means that the changes in current over time were within a limited range. The magnitude of the current after stabilization was used to calculate the effect of the compound at this […].
The inhibitory activity of the compounds of the present disclosure against Nav1.8 was determined through the above assay.

≈ marks a conversion by molar mass, not a printed value. Like-named read-outs stand apart in the source and are kept apart here.

As usually defined, the solubility is the dissolved amount per volume that the medium holds. What is called IC50 is the midpoint of a concentration-inhibition curve. In the case of `COc1c([C@H]2[C@H](C(=O)Nc3ccnc(C(=N)N)c3)O[C@@](C)(C(F)(F)F)[C@H]2C)ccc(F)c1F` [Example 20, (2R,3S,4S,5R)—N-(2-Carbamimidoylpyridin-4-yl)-3-(3,4-difluoro-2-methoxyphenyl)-4,5-dimethyl-5-(trifluoromethyl)tetrahydrofuran-2-carboxamide], the solubility at 24 h in data set [1] (FassIF solution, read-out: Solubility in FassIF solution) turned out to be 308 µM (≈ 145 µg/mL); in data set [1] (FessIF solution, read-out: Solubility in FessIF solution) it was 2410 µM (≈ 1140 µg/mL). In data set [2], the IC50 amounted to 0.24 nM.
